Experimental data: patent publication US12384769B2, “Heteroaryl-substituted aminoalkyl azole compounds as pesticides” (Elanco Animal Health GmbH, priority 2019, dated 2025)

What was measured:
Assay type in all cases: in vivo
[1] = system: Rhipicephalus microplus (strain Parkhurst, resistant against synthetic pyrethroids); assay: Rhipicephalus microplus in-vitro contact test, larval cattle tick (BOOPMI Contact); conditions: 5 μg/cm^2 (=500 g/ha), after 48 hours, read-out: activity (efficacy, larvae dead or moribund)
Method in brief: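 Efficacy, expressed as percentage of larvae dead or moribund, is judged by negative geotactic behaviour 48 h after larvae (20-50 per tube) enter tubes whose inner walls carry a dried acetone film of compound, 5 μg/cm² at 900 ppm. Incubation: horizontal, 27 °C, 85% relative humidity.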

[2] = system: Ctenocephalides felis; assay: Ctenocephalides felis oral test (CTECFE); conditions: 48 h, 100 ppm in cattle blood, after 2 days
Method in brief: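 About 20 adult unfed fleas fed through parafilm on cattle blood held at 37° C and dosed with compound from a DMSO concentrate; flea chamber at room temperature. Percent mortality scored after 2 days.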

[3] = system: Nilaparvata lugens; assay: Nilaparvata lugens spray test; conditions: 96 h, rice plants, after 4 days
Experimental: Nilaparvata lugens—Spray Test
(§1) Solvent: 78.0 parts by weight of acetone • • 1.5 parts by weight of dimethylformamide
(§2) Emulsifier: alkylarylpolyglycol ether
(§3) To produce a suitable preparation of active compound, 1 part by weight of active compound is mixed with the stated amount of solvents and is diluted with water, containing an emulsifier concentration of 1000 ppm, to the desired concentration. Further test concentrations are prepared by dilution with emulsifier containing water.
Rice plants (Oryza sativa) are sprayed with a preparation of the active ingredient of the desired concentration and the plants are infested with the brown planthopper (Nilaparvata lugens).
After 4 days mortality in % is determined. 100% means all planthoppers have been killed and 0% means none of the planthoppers have been killed.

[4] = system: Diabrotica balteata; assay: Diabrotica balteata spray test; conditions: 168 h, wheat seeds, after 7 days, read-out: activity (efficacy, seedlings grown); for pest or weed control at 160 µg/disc, 500 g/ha: 500 g/ha (=160 μg/well)
Method in brief: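 Efficacy was read 7 days after infesting each unit with 10–20 banded cucumber beetle larvae, as % of seedlings growing like untreated, uninfested controls. Before infestation, wheat seeds germinated 1 day on agar (5 per well) were sprayed with the active ingredient. The active was formulated in acetone/DMF and diluted in water containing emulsifier.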

[5] = system: Boophilus microplus; assay: Boophilus microplus injection test (BOOPMI Injection); conditions: Rhipicephalus microplus, 168 h, injection into adult engorged female ticks, egg deposition after 7 days, read-out: activity (efficacy, infertile eggs)
Method in brief: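 Adult engorged female ticks (5 per group) injected into the abdomen with 1 μL compound in DMSO, then held in a climate chamber. Fertile egg deposition scored after 7 days, with unclear eggs kept until hatching (~42 days). Efficacy 100% = all eggs infertile, 0% = all fertile.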

[6] = system: Ctenocephalides felis; assay: Ctenocephalides felis in-vitro contact test, adult cat flea; conditions: 5 μg/cm^2 (=500 g/ha), after 48 hours, read-out: activity (efficacy, fleas dead or moribund)
Method in brief: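 Acetone solutions coated onto inner walls of glass tubes; 900 ppm gives 5 μg/cm^2. After drying, 5-10 adult Ctenocephalides felis per tube held 48 h at room temperature. Fleas then placed on 45-50° C. plate for up to 5 min; those unable to climb away scored dead or moribund, efficacy as % dead/moribund.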

[7] = system: Myzus persicae; assay: Myzus persicae oral test; conditions: 120 h, after 5 days
Experimental: Solvent: 100 parts by weight acetone
Afterwards the plates are sealed with parafilm through which a mixed population of the green peach aphid (Myzus persicae) can suck on the compound preparation.
(§4) After 5 days mortality in % is determined. 100% means all aphids have been killed and 0% means none of the aphids have been killed.

[8] = system: Nezara viridula; assay: Nezara viridula spray test; conditions: 96 h, barley plants, after 4 days
Experimental: Nezara viridula—Spray Test
as §1, §2
as §3, with “solvent,” for “solvents”, “and the concentrate” for “and”
Barley plants (Hordeum vulgare) are sprayed with a test solution containing the desired concentration of the active ingredient and are infested with larvae of the southern green stink bug (Nezara viridula).
After 4 days, mortality in % is determined. 100% means all the stink bugs have been killed; 0% means none of the stink bugs have been killed.

[9] = system: Spodoptera frugiperda; assay: Spodoptera frugiperda spray test; conditions: in Zea mays, 168 h, read-out: activity (mortality)
Method in brief: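 Larvae of fall armyworm placed on dried maize leaf sections previously sprayed with emulsified compound (acetone/DMF solvent, water with 1000 ppm emulsifier). Percent of caterpillars killed recorded on day 7, 0–100% scale.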

[10] = system: Aedes aegypti strain MONHEIM; assay: Aedes aegypti test (AEDSAE surface treatment & contact assay); conditions: 30 minutes exposure, 24 hours after contact, read-out: efficacy (mortality)
Experimental: Aedes aegypti Test (AEDSAE Surface Treatment & Contact Assay)
(§5) Solvent: Aceton+2000 ppm rapeseed oil methyl ester (RME)
(§6) In order to produce a sufficient, active ingredient containing solution it is necessary to solve the test compound in the solvent-mix (acetone at 2 mg/mL/RME 2000 ppm). This solution is pipetted onto a glazed tile and after evaporation of the acetone, adult mosquitoes of the species Aedes aegypti strain MONHEIM are placed onto the dried surface. The exposure time is 30 minutes.
(§7) Mortality in percent (%) is determined 24 hours after contact of the insects to the treated surface. 100% mortality means that all tested insects are dead, whereas 0% means that no insect died.

[11] = system: Anopheles funestus strain FUMOZ-R; assay: Anopheles funestus test (ANPHFU surface treatment & contact assay); conditions: 30 minutes exposure, 24 hours after contact, read-out: efficacy (mortality)
Experimental: Anopheles funestus Test (ANPHFU Surface Treatment & Contact Assay)
as §5
as §6, with “Anopheles funestus” for “Aedes aegypti”, “FUMOZ-R (Hunt et al., Med. Vet. Entomol. 2005 September; 19(3): 271-275)” for “MONHEIM”
as §7

[12] = system: Musca domestica strain WHO-N; assay: Musca domestica test (MUSCDO surface treatment & contact assay); conditions: 30 minutes exposure, 24 hours after contact, read-out: efficacy (mortality)
Experimental: Musca domestica Test (MUSCDO Surface Treatment & Contact Assay)
as §5
as §6, with “flies” for “mosquitoes”, “Musca domestica” for “Aedes aegypti”, “WHO—N” for “MONHEIM”
as §7

[13] = system: Rhipicephalus sanguineus; assay: Rhipicephalus sanguineus in-vitro contact test, adult brown dog ticks (RHIPSA Contact); conditions: 5 μg/cm^2 (=500 g/ha), after 48 hours, read-out: activity (efficacy, ticks dead or moribund)
Method in brief: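 Acetone solution coated onto glass tube walls; 900 ppm gives 5 μg/cm^2. After drying, 5-10 adult ticks per tube kept at room temperature for 48 h, then placed on a 45-50° C heating plate up to 5 min; ticks unable to climb away counted dead or moribund, efficacy as % affected.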

[14] = system: Myzus persicae; assay: Myzus persicae spray test; conditions: foliar, 120 h, 100 g/ha, Chinese cabbage leaf disks, after 5 days
Experimental: Myzus persicae—Spray Test
(§8) Solvent: 78.0 parts by weight acetone • 1.5 parts by weight dimethylformamide
as §2, §3
Chinese cabbage (Brassica pekinensis) leaf disks infected with all instars of the green peach aphid (Myzus persicae), are sprayed with a preparation of the active ingredient of the desired concentration.
as §4

[15] = system: Tetranychus urticae; assay: Tetranychus urticae spray test OP-resistant; conditions: foliar, 144 h, 100 g/ha, French bean leaf disks, after 6 days
Experimental: Tetranychus urticae—Spray Test OP-Resistant
as §8, §2, §3
French bean (Phaseolus vulgaris) leaf disks infected with all instars of the two spotted spidermite (Tetranychus urticae) are sprayed with a preparation of the active ingredient of the desired concentration.
After 6 days mortality in % is determined. 100% means all spider mites have been killed and 0% means none of the spider mites have been killed.

[16] = surface concentration 4 mg/m^2, glazed tile
[17] = surface concentration 20 mg/m^2, glazed tile

For `Cc1cc2oc(N[C@@H](C)c3ncnn3-c3ncccn3)nc2cc1Br` [Example I-007], the pest or weed control at 5 µg/cm2 [1] was 100%, the mortality at 100 ppm [2] was 100% and the mortality at 500 g/ha [3] was 100%.
`C[C@H](Nc1nc2ccccc2s1)c1ncnn1-c1ncccn1` [Example I-009] gave a pest or weed control at 160 µg/disc, 500 g/ha [4] of 80% and a mortality at 500 g/ha [3] of 100%.
Work on `C[C@H](Nc1nc2cc(C(F)(F)F)c(Cl)cc2o1)c1ncnn1-c1ccc(C#N)cn1` [Example I-017] yielded a pest or weed control at 0.004 mg ([5]; 4 μg/animal) of 100%, a pest or weed control at 0.02 mg ([5]; 20 μg/animal) of 100% and a pest or weed control at 5 µg/cm2 [1] of 100%. It also gave a pest or weed control at 5 µg/cm2, 5 µg/cm2 [6] of 100%, a pest or weed control at 100 g/ha [4] of 100% and a pest or weed control at 160 µg/disc, 500 g/ha [4] of 100%. For the same molecule, the mortality at 4 ppm [7] was 90%, the mortality at 500 g/ha ([8]; 500 g/ha) was 100% and the mortality at 100 g/ha [9] was 100%. The mortality at 500 g/ha [9] was 100%, the mortality at 4 mg/m2 [10, 16] was 85 to 100% and the mortality at 20 mg/m2 [10, 17] was 90 to 100%. The mortality at 4 mg/m2 [11, 16] was 85 to 100%, the mortality at 20 mg/m2 [11, 17] was 90 to 100% and the mortality at 4 mg/m2 [12, 16] was 90 to 100%. It also gave a mortality at 20 mg/m2 [12, 17] of 90 to 100%.
In the case of `C[C@H](Nc1nc2cc(OC(F)(F)F)c(Cl)cc2o1)c1ncnn1-c1ncc(Br)cn1` [Example I-085, N-{(1S)-1-[1-(5-Brompyrimidin-2-yl)-1H-1,2,4-triazol-5-yl]ethyl}-6-chlor-5(trifluormethoxy)-1,3-benzoxazol-2-amin], the pest or weed control at 5 µg/cm2 [1] is reported as 100%, the pest or weed control at 5 µg/cm2, 5 µg/cm2 [6] is reported as 100% and the pest or weed control at 5 µg/cm2, 5 µg/cm2 [13] is reported as 100%. The pest or weed control at 100 g/ha [4] was 100%, the mortality at 100 g/ha [14] was 90% and the mortality at 100 g/ha ([8]; 100 g/ha) was 100%. For the same molecule, the mortality at 100 g/ha [9] was 100% and the mortality at 100 g/ha [15] was 90%.
